In US8575321B2, “Benzylbenzene derivatives and methods of use” (Theracos, Inc., priority 2007, dated 2013) one finds IC50 data, which are given here for 15 compounds.

In test [1] the target is T1, human SGLT2 (Homo sapiens, UniProt P31639).
T1 construct: A full-length cDNA clone expressing human SGLT2
T1 sequence (P31639 1-672): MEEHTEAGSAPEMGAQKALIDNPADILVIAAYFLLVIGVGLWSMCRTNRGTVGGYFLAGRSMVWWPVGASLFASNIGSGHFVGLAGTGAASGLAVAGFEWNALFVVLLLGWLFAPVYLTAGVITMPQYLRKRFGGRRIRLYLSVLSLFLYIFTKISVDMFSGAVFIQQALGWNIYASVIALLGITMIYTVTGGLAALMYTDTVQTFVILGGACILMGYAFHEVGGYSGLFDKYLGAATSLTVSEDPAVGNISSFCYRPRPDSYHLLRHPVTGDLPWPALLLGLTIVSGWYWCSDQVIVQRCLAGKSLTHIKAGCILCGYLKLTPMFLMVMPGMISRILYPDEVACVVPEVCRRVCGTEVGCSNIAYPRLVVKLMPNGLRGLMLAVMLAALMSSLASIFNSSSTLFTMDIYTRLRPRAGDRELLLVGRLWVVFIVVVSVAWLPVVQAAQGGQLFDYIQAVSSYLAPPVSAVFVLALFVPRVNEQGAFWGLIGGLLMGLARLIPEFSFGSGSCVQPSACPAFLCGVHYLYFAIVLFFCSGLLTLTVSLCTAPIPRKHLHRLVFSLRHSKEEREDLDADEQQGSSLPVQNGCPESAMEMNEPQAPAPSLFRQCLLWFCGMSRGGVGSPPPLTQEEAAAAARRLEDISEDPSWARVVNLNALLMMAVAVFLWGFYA
Briefly: Methyl-α-D-[U-14C]glucopyranoside uptake assay in HEK293.ETN cells stably expressing human SGLT2. It counts as cell-based. Particulars: 1.5 h incubation. The text has this: A full-length cDNA clone expressing human SGLT2 (GenScript Corporation) was subcloned into Hind III and Not I sites of pEAK15 expression vector. Clones harboring the cDNA inserts were identified by restriction analysis.
Plasmid containing human SGLT2 was linearized with Nsi I and purified by agarose gel electrophoresis. Using Lipofectamine 2000 Transfection Reagent (Invitrogen Corporation), DNA was transfected into HEK293.ETN cells and cultured in Dulbecco's Modified Eagle Medium (DMEM) containing 10% fetal bovine serum (FBS) at 37° C. under 5% CO2 for 24 h. Transfectants were selected in the same growth medium supplemented with puromycin (Invitrogen Corporation) for two weeks. Puromycin-resistant cells were recovered and seeded on a fresh 96-well plate (single cell per well) and cultured in the presence of puromycin until cells became confluent. Puromycin-resistant clones were evaluated for SGLT2 activity in the methyl-α-D-[U-^14C]glucopyranoside uptake assay described below.
(§1) Cells expressing SGLT1 or SGLT2 were seeded on 96-well ScintiPlate scintillating plates (PerkinElmer, Inc.) in DMEM containing 10% FBS (1×10^5 cells per well in 100 μl medium) incubated at 37° C. under 5% CO2 for 48 h prior to the assay. Cells were washed twice with 150 μl of either sodium buffer (137 mM NaCl, 5.4 mM KCl, 2.8 mM CaCl2, 1.2 mM MgCl2, 10 mM tris(hydroxymethyl)aminomethane/N^2-hydroxyethylpiperazine-N′-ethanesulfonic acid [Tris/Hepes], pH 7.2) or sodium-free buffer (137 mM N-methyl-glucamine, 5.4 mM KCl, 2.8 mM CaCl2, 1.2 mM MgCl2, 10 mM Tris/Hepes, pH 7.2). Test compound in 50 μl each of sodium or sodium-free buffer containing 40 μCi/ml methyl-α-D-[U-^14C]glucopyranoside (Amersham Biosciences/GE Healthcare), either with (symbols in parentheses) or without (symbols without parentheses) 25% human serum, was added per well of a 96-well plate and incubated at 37° C. with shaking for either 2 h (SGLT1 assay) or 1.5 h (SGLT2 assay). Cells were washed twice with 150 μl of wash buffer (137 mM N-methylglucamine, 10 mM Tris/Hepes, pH 7.2) and methyl-α-D-[U-^14C]glucopyranoside uptake was quantitated using a TopCount scintillation counter (PerkinElmer, Inc.). Sodium-dependent glucopyranoside uptake was measured by subtracting the values obtained with sodium-free buffer from those obtained using sodium buffer (average of triplicate determinations).

In test [2] the target is T2, human SGLT1 (Homo sapiens, UniProt P13866).
T2 construct: Full-length human SGLT1 cDNA on pDream2.1 expression vector; host or cells: COS-7 cells (American Type Culture Collection)
T2 sequence (P13866 1-664): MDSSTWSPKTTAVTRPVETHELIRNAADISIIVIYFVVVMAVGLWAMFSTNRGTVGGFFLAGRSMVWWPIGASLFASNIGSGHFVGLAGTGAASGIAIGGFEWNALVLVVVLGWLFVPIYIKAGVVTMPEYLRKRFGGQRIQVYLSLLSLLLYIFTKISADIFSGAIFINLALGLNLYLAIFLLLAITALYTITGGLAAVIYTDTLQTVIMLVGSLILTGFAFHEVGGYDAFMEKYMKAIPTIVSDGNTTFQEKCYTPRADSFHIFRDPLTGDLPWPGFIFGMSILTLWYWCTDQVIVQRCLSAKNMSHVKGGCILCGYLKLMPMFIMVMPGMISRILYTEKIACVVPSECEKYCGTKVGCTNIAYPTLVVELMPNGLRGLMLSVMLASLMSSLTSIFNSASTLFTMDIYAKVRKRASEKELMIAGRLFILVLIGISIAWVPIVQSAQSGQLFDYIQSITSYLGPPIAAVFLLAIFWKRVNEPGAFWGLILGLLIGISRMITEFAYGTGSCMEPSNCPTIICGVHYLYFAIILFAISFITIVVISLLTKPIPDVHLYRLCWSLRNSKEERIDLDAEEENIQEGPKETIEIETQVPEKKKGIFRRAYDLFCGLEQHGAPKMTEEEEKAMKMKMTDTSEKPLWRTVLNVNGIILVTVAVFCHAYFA
Description: Methyl-α-D-[U-14C]glucopyranoside uptake assay in COS-7 cells expressing human SGLT1. The conditions noted are these: 2 h incubation. The format is cell-based. As to the method:
Full-length human SGLT1 cDNA on pDream2.1 expression vector was obtained from GenScript Corporation and propagated in Escherichia coli strain DH5α using Luria-Bertani (LB) medium containing ampicillin. Plasmid DNA was isolated using the QIAGEN Plasmid Midi Kit (QIAGEN Inc.). […] Transfected cells were stored in DMEM containing 10% dimethyl sulfoxide (DMSO) at −80° C.
as §1

Setting [3] is: incubation with 25% human serum (symbols in parentheses).
Where [4] appears, read: without human serum (symbols without parentheses).

Consider `OC[C@H]1O[C@@H](c2ccc(Cl)c(Cc3ccc(COC4CC4)cc3)c2)[C@H](O)[C@@H](O)[C@@H]1O` [Compound CX, (2S,3R,4R,5S,6R)-2-(4-chloro-3-(4-(cyclopropoxymethyl)benzyl)phenyl)-6-(hydroxymethyl)tetrahydro-2H-pyran-3,4,5-triol], for which the results for the IC50 in test [1] (setting [3]) and in test [2] (setting [3]) were less than 1000 nM and greater than 10 µM, respectively.
As to `OC[C@H]1O[C@@H](c2ccc(Cl)c(Cc3ccc(OCC#CC4CC4)cc3)c2)[C@H](O)[C@@H](O)[C@@H]1O` [Compound AV, (2S,3R,4R,5S,6R)-2-(4-chloro-3-(4-(3-cyclopropylprop-2-ynyloxy)benzyl)phenyl)-6-(hydroxymethyl)tetrahydro-2H-pyran-3,4,5-triol], the concentration for half-maximal inhibition (IC50) – broadly, the midpoint of a concentration-inhibition curve – in test [1] (setting [3]) was less than 1000 nM; in test [2] (setting [3]), greater than 10 µM.
As to `OC[C@H]1O[C@@H](c2ccc(Cl)c(Cc3ccc(OCCOC4CCCC4)cc3)c2)[C@H](O)[C@@H](O)[C@@H]1O` [Compound AD, (2S,3R,4R,5S,6R)-2-(4-chloro-3-(4-(2-(cyclopentyloxy)ethoxy)benzyl)phenyl)-6-(hydroxymethyl)tetrahydro-2H-pyran-3,4,5-triol], the IC50 in test [1] (setting [3]) is less than 1000 nM; in test [2] (setting [3]), 1 to 10 µM.
For `C=CCOCCOc1ccc(Cc2cc([C@@H]3O[C@H](CO)[C@@H](O)[C@H](O)[C@H]3O)ccc2Cl)cc1` [Compound P, (2S,3R,4R,5S,6R)-2-(3-(4-(2-(allyloxy)ethoxy)benzyl)-4-chlorophenyl)-6-(hydroxymethyl)tetrahydro-2H-pyran-3,4,5-triol], the IC50 in test [1] (setting [3]) was less than 1000 nM; in test [2] (setting [3]), 1 to 10 µM.
On the same counts, the results for `OC[C@H]1O[C@@H](c2ccc(Cl)c(Cc3ccc(CCCOC4CC4)cc3)c2)[C@H](O)[C@@H](O)[C@@H]1O` [Compound DJ, (2S,3R,4R,5S,6R)-2-(4-chloro-3-(4-(3-cyclopropoxypropyl)benzyl)phenyl)-6-(hydroxymethyl)tetrahydro-2H-pyran-3,4,5-triol] are less than 1000 nM and 1 to 10 µM.
On the same counts, the results for `OC[C@H]1O[C@@H](c2ccc(Cl)c(Cc3ccc(OC/C=C/C4CC4)cc3)c2)[C@H](O)[C@@H](O)[C@@H]1O` [Compound BZ, (2S,3R,4R,5S,6R)-2-(4-chloro-3-(4-((E)-3-cyclopropylallyloxy)benzyl)phenyl)-6-(hydroxymethyl)tetrahydro-2H-pyran-3,4,5-triol] are less than 1000 nM and greater than 10 µM.
On the same counts, the results for `C#CCOCCOc1ccc(Cc2cc([C@@H]3O[C@H](CO)[C@@H](O)[C@H](O)[C@H]3O)ccc2Cl)cc1` [Compound R, (2S,3R,4R,5S,6R)-2-(4-chloro-3-(4-(2-(prop-2-ynyloxy)ethoxy)benzyl)phenyl)-6-(hydroxymethyl)tetrahydro-2H-pyran-3,4,5-triol] are less than 1000 nM and 1 to 10 µM.
With `OC[C@H]1O[C@@H](c2ccc(Cl)c(Cc3ccc(OCCOCC(F)F)cc3)c2)[C@H](O)[C@@H](O)[C@@H]1O` [Compound CF, (2S,3R,4R,5S,6R)-2-(4-chloro-3-(4-(2-(2,2-difluoroethoxy)ethoxy)benzyl)phenyl)-6-(hydroxymethyl)tetrahydro-2H-pyran-3,4,5-triol], the values for the IC50 in test [1] (setting [4]) and in test [2] (setting [4]) were less than 1000 nM and 1 to 10 µM, respectively.
On to `OC[C@H]1O[C@@H](c2ccc(Cl)c(Cc3ccc(CCOC4CC4)cc3)c2)[C@H](O)[C@@H](O)[C@@H]1O` [Compound CT, (2S,3R,4R,5S,6R)-2-(4-chloro-3-(4-(2-cyclopropoxyethyl)benzyl)phenyl)-6-(hydroxymethyl)tetrahydro-2H-pyran-3,4,5-triol], for which the IC50 is less than 1000 nM in test [1] (setting [3]) and greater than 10 µM in test [2] (setting [3]).
`OC[C@H]1O[C@@H](c2ccc(Cl)c(Cc3ccc(OCCOCCF)cc3)c2)[C@H](O)[C@@H](O)[C@@H]1O` [Compound CC, (2S,3R,4R,5S,6R)-2-(4-chloro-3-(4-(2-(2-fluoroethoxy)ethoxy)benzyl)phenyl)-6-(hydroxymethyl)tetrahydro-2H-pyran-3,4,5-triol]: the IC50 in test [1] (setting [4]) is less than 1000 nM; in test [2] (setting [4]), 1 to 10 µM.
`OCC#CCOc1ccc(Cc2cc([C@@H]3O[C@H](CO)[C@@H](O)[C@H](O)[C@H]3O)ccc2Cl)cc1` [Compound X, (2S,3R,4R,5S,6R)-2-(4-chloro-3-(4-(4-hydroxybut-2-ynyloxy)benzyl)phenyl)-6-(hydroxymethyl)tetrahydro-2H-pyran-3,4,5-triol]: the values for the IC50 in test [1] (setting [3]) and in test [2] (setting [3]) were less than 1000 nM and 1 to 10 µM, respectively.
In the same order, the values of `OC[C@H]1O[C@@H](c2ccc(Cl)c(Cc3ccc(OCCOC4CC4)cc3)c2)[C@H](O)[C@@H](O)[C@@H]1O` [Compound BQ, (2S,3R,4R,5S,6R)-2-(4-chloro-3-(4-(2-cyclopropoxyethoxy)benzyl)phenyl)-6-(hydroxymethyl)tetrahydro-2H-pyran-3,4,5-triol] are less than 1000 nM and 1 to 10 µM.
On to `OC[C@H]1O[C@@H](c2ccc(Cl)c(Cc3ccc(CCOC(F)F)cc3)c2)[C@H](O)[C@@H](O)[C@@H]1O` [Compound BN, (2S,3R,4R,5S,6R)-2-(4-chloro-3-(4-(2-(difluoromethoxy)ethyl)benzyl)phenyl)-6-(hydroxymethyl)tetrahydro-2H-pyran-3,4,5-triol], for which the IC50 in test [1] (setting [3]) is less than 1000 nM; in test [2] (setting [3]), greater than 10 µM.
On the same counts, the results for `COCC#CCOc1ccc(Cc2cc([C@@H]3O[C@H](CO)[C@@H](O)[C@H](O)[C@H]3O)ccc2Cl)cc1` [Compound Z, (2S,3R,4R,5S,6R)-2-(4-chloro-3-(4-(4-methoxybut-2-ynyloxy)benzyl)phenyl)-6-(hydroxymethyl)tetrahydro-2H-pyran-3,4,5-triol] are less than 1000 nM and greater than 10 µM.
On the same counts, the results for `OC[C@H]1O[C@@H](c2ccc(Cl)c(Cc3ccc(OCCOC4CCC4)cc3)c2)[C@H](O)[C@@H](O)[C@@H]1O` [Compound CM, (2S,3R,4R,5S,6R)-2-(4-chloro-3-(4-(2-cyclobutoxyethoxy)benzyl)phenyl)-6-(hydroxymethyl)tetrahydro-2H-pyran-3,4,5-triol] are less than 1000 nM and greater than 10 µM.
